Assays:
[1] = test system: knee prosthesis in patients; settings: administered orally to patients undergoing total knee replacement; cited from earlier work
[2] = test system: bone-connecting implant in a human; test: Displacement or migration of implant by radiosterometric analysis (RSA) in patients treated with PTH; assay type: in vivo
Description: For example, in Hilding, M. et al., Acta Orthopaedica Scandinavica 71:553-557 (2000), several 0.8 mm tantalum markers were positioned in both the proximal tibia and the plastic insert during total knee replacement surgeries. The positions of the markers were followed by radiographs taken one day, six weeks, six months and one year following the operation as a means to monitor postoperative implant shifting. Other techniques for measuring or evaluating the stability of bone-connecting implants are known to those skilled in the art and may be applied to the present invention.
The displacement or migration of the implanted artificial hip is measured over a 6-month period using radiosterometric analysis (RSA) as described in Hilding et al., supra.
The displacement or migration of the implanted artificial hip is measured over a 9-month period using radiosterometric analysis (RSA) as described in Hilding et al., supra.
The displacement or migration of the implanted tibia is measured over a 4-month period using radiosterometric analysis (RSA) as described in Hilding et al., supra.
The displacement or migration of the implanted artificial knee is measured over a 12-month period using radiosterometric analysis (RSA) as described in Hilding et al., supra.

[3] = test system: rats, stainless steel screw; settings: 60 μg/kg/day for four weeks; cited from earlier work
[4] = test system: humans suffering from osteoporosis; settings: cited from earlier work
[5] = test system: rats, titanium bone chamber; settings: 15-240 μg/kg/day for six weeks; cited from earlier work

O=P(O)(O)C(Cl)(Cl)P(=O)(O)O [Clodronate]
prosthetic migration [1]: appeared to reduce prosthetic migration

PTH(1-34): The N-terminal 34 amino acids of human PTH (parathyroid hormone); PTH utilized in Examples 1-5 (SVSEIQLMHNLGKHLNSMERVEWLRKKLQDVHNF; Parathyroid hormone; UniProt P01270 32-65, looked up, fragment)
likelihood of reoperation ([2]; Example 1: person, osteoporosis, artificial hip, regimen of Table 1): reduce the likelihood of reoperation
likelihood of reoperation ([2]; Example 2: person, osteoarthritis, artificial hip, regimen of Table 2): reduce the likelihood of reoperation
likelihood of reoperation ([2]; Example 3: person, tibia replacement, regimen of Table 3): reduce the likelihood of reoperation
likelihood of reoperation ([2]; Example 4: person, knee replacement, regimen of Table 4): reduce the likelihood of a reoperation
likelihood of reoperation ([2]; Example 5: person, artificial hip, regimen of Table 5): reduce the likelihood of reoperation
fixation of a stainless steel screw [3]: enhances fixation of a stainless steel screw
fractures [4]: reduce fractures
spinal bone mineral content [4]: increase spinal bone mineral content
new bone formation [5]: enhances new bone formation

Source: patent US20040242489A1, “Method for improving stability of a bone-connecting implant” (priority 2001, published 2004)
